# The supplement of paper PMC10307832
# Tests used:
# Assay in all cases: relative viability (nuclei count vs DMSO), 5 days (fraction); higher = more cells survive
# Apatinib + Palbociclib = compound: N#CC1(c2ccc(NC(=O)c3cccnc3NCc3ccncc3)cc2)CCCC1 [Apatinib] + CC(=O)c1c(C)c2cnc(Nc3ccc(N4CCNCC4)cn3)nc2n(C2CCCC2)c1=O [Palbociclib] (partner 0.5 µM)
# Procedure, shortened: (§1)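 Each reported value is a median over duplicate plates. It expresses relative viability: treated-well nuclei count divided by vehicle-well nuclei count. Lung cancer cell lines in 1536-well plates were dosed by pin tool a day after seeding, alone with one drug or with a fixed anchor-drug dose plus five library-drug doses (not always all listed) in √10 steps, and nuclei were counted after 5 days.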
# Apatinib + Tozasertib = compound: N#CC1(c2ccc(NC(=O)c3cccnc3NCc3ccncc3)cc2)CCCC1 [Apatinib] + Cc1cc(Nc2cc(N3CCN(C)CC3)nc(Sc3ccc(NC(=O)C4CC4)cc3)n2)n[nH]1 [Tozasertib] (partner 0.1 µM)
# Procedure, shortened: as §1
# Apatinib + Alpelisib = compound: N#CC1(c2ccc(NC(=O)c3cccnc3NCc3ccncc3)cc2)CCCC1 [Apatinib] + Cc1nc(NC(=O)N2CCC[C@H]2C(N)=O)sc1-c1ccnc(C(C)(C)C(F)(F)F)c1 [Alpelisib] (partner 2 µM)
# Procedure, shortened: as §1
# Apatinib + Phenformin = compound: N#CC1(c2ccc(NC(=O)c3cccnc3NCc3ccncc3)cc2)CCCC1 [Apatinib] + N=C(N)NC(=N)NCCc1ccccc1 [Phenformin] (partner 250 µM)
# Procedure, shortened: as §1
Cell Line,relative viability (Apatinib + Palbociclib; first compound 0.08 µM),relative viability (Apatinib + Palbociclib; first compound 0.253 µM),relative viability (Apatinib + Palbociclib; first compound 0.8 µM),relative viability (Apatinib + Palbociclib; first compound 2.53 µM),relative viability (Apatinib + Palbociclib; first compound 8 µM),relative viability (Apatinib + Tozasertib; first compound 0.08 µM),relative viability (Apatinib + Tozasertib; first compound 0.253 µM),relative viability (Apatinib + Tozasertib; first compound 0.8 µM),relative viability (Apatinib + Tozasertib; first compound 2.53 µM),relative viability (Apatinib + Tozasertib; first compound 8 µM),relative viability (Apatinib + Alpelisib; first compound 0.08 µM),relative viability (Apatinib + Alpelisib; first compound 0.253 µM),relative viability (Apatinib + Alpelisib; first compound 0.8 µM),relative viability (Apatinib + Alpelisib; first compound 2.53 µM),relative viability (Apatinib + Alpelisib; first compound 8 µM),relative viability (Apatinib + Phenformin; first compound 0.08 µM),relative viability (Apatinib + Phenformin; first compound 0.253 µM),relative viability (Apatinib + Phenformin; first compound 0.8 µM),relative viability (Apatinib + Phenformin; first compound 2.53 µM),relative viability (Apatinib + Phenformin; first compound 8 µM)
NCI-H2023,0.381,0.402,0.354,0.376,0.307,0.43,0.307,0.195,0.162,0.135,0.64,0.675,0.587,0.514,0.559,0.384,0.481,0.404,0.329,0.301
NCI-H2085,0.469,0.493,0.487,0.416,0.437,0.844,0.767,0.726,0.379,0.406,1.05,0.931,0.931,0.858,0.792,0.707,0.715,0.752,0.65,0.656
NCI-H2087,0.231,0.256,0.248,0.266,0.178,0.241,0.223,0.215,0.179,0.143,1.19,1.07,1.03,0.904,0.666,0.499,0.46,0.424,0.339,0.374
NCI-H2126,0.324,0.352,0.355,0.322,0.34,0.953,0.861,0.797,0.709,0.607,0.818,0.761,0.758,0.743,0.767,0.564,0.501,0.512,0.521,0.523
NCI-H2170,0.387,0.382,0.362,0.379,0.298,0.86,0.879,0.677,0.652,0.51,0.884,0.776,0.8,0.743,0.706,0.462,0.404,0.373,0.355,0.335
NCI-H2228,0.668,0.788,0.776,0.708,0.667,0.268,0.221,0.225,0.164,0.0952,0.785,0.738,0.648,0.542,0.527,0.423,0.284,0.223,0.29,0.301
NCI-H2347,0.469,0.407,0.452,0.384,0.392,0.504,0.651,0.604,0.428,0.466,0.943,1.02,1,1.02,0.944,0.476,0.307,0.443,0.206,0.465
NCI-H2405,0.528,0.569,0.546,0.513,0.479,0.911,0.759,0.685,0.607,0.604,0.855,1.1,0.91,0.841,0.81,0.392,0.392,0.394,0.33,0.344
